Reference: US9724537B2, “Abnormal electrical conduction blocking apparatus using photodynamic therapy (PDT)” (Keio University, priority 2006, dated 2017)

What was measured:
[1] = system: isolated ventricular muscle tissue; test: Formation of electrical conduction block by PDT in isolated cardiac muscle tissue; parameters: species or system Wister rat; details: 4.3 μg/ml
Procedure: An electrical conduction block was formed by performing PDT using a cardiac muscle tissue.
A cardiac muscle tissue was isolated from a Wister rat, immersed in a perfusion fluid (Tyrode's solution [aerated with 95% O2 and 5% CO2 gases and stored at 37° C. in a constant-temperature apparatus]), spread, fixed on the floor (made of silicon) of a tissue bath with a tungsten wire to prepare a spread sample (maximum 1.5 cm long, 1.0 cm width, 0.18 cm thickness) of an isolated ventricular muscle. A perfusion fluid was passed through the spread sample and stabilized by allowing to stand for approx. 3 h. At this time, the perfusion fluid was not reused.
As a photosensitizer, talaporfin sodium was dissolved in a perfusion fluid at 4.3 μg/ml, and 300 cc was circulated and perfused. It is assumed that, when a photosensitizer is intravenously injected to a 300-g rat at approx. 2 mg/kg, the photosensitizer is dissolved at about this concentration in the fluid throughout the body. After loading for 2 h, a liquid level of the perfusion fluid was lowered to the tissue surface or lower, and the spread tissue was irradiated with a laser beam.
The irradiation laser beam was a continuous semiconductor laser beam (peak wavelength, 670.8 nm) and was delivered to the tissue from an irradiation port of 0.0078 cm^2 at the fiber end with an intensity of 150 mW/cm^2 in a contact state. While moving the fiber, a 0.1-cm^2 (0.1 cm length×1 cm width) region of the tissue surface was irradiated with a laser beam for 5 min. Irradiation was performed at 3.5 J/cm^2 in terms of total energy density.
The tissue action potential was measured as follows. An electrical stimulus of 2 Hz and 50 mA was applied from a bipolar electrode (0.2φ silver wire) using a stimulator, and a potential of the tissue surface was led with a bipolar measuring electrode (0.25φ stainless wire).
FIGS. 8A to 8F show changes in the potential of the spread tissue. In FIGS. 8A to 8F, the upper line represents potential changes at site 1 in FIG. 7. The lower line represents potential changes at site 2 in FIG. 7. The unit of the vertical axis is mV.

[2] = system: isolated right ventricular free wall of a Wistar rat; test: PDT electrical conduction block experiment in ex vivo system
Procedure: As materials, spread samples of an isolated right ventricular free wall of a Wistar rat (male, 8 to 10 weeks old) were used. The length (L) and the thickness (d) of sample photoradiation lines in each experiment are as follows.
Experiment 1: L=0.9 cm, d=1.5 mm
Experiment 2: L=0.76 cm, d=1.5 mm
Experiment 3: L=1.2 cm, d=1.4 mm
Experiment 4: L=0.88 cm, d=1.4 mm
Tyrode's solution (95% O2 and 5% CO2 gases were passed through, and the temperature was maintained at 37° C. in a constant-temperature apparatus) was used as a perfusion fluid.
Immediately after isolation, the heart was dipped in the perfusion fluid heated at about 37° C., and a right ventricular tissue was ablated. The ablated tissue was fixed on the silicon floor of a tissue bath with a 0.2 mmφ tungsten wire, and then the perfusion fluid was allowed to flow.
Immediately after rats were allowed to inhale vaporized diethyl ether, heparin and Nembutal (0.2 and 0.5 ml, respectively) were administered intraperitoneally, and approx. 0.5 ml of talaporfin sodium (Laserphyrin [registered trade name] Meiji Seika Kaisha, Ltd.) dissolved in physiological saline was intravenously injected from the vena cava of the rat lower extremity. After the heart was isolated, a right ventricular tissue was ablated in a normal Tyrode's solution and fixed in a tissue bath. Then, Tyrode's solutions in which talaporfin sodium was dissolved at various concentrations (see Reference Example 1 described later, set assuming a half of the plasma concentration at each dose and interval as blood concentration) (these are referred to as photosensitizer solutions), and loaded by circulatory perfusion for a period equal to time required from the heart isolation to bath fixation (approx. 10 min), and laser irradiation was performed with surface perfusion. The photosensitizer dose (D), the interval to heart isolation, and the concentration of the photosensitizer solution (c) in each experimental example were as follows.
Experiment 1: D=5 mg/kg; interval, 30 min; c=30 μg/ml
Experiment 2: D=5 mg/kg; interval, 60 min; c=20 μg/ml
Experiment 3: D=2 mg/kg; interval, 30 min; c=12 μg/ml
Experiment 4: D=2 mg/kg; interval, 60 min; c=8 μg/ml
A continuous semiconductor laser beam (SONY, peak wavelength, 670 band) was transmitted with a quartz fiber (core diameter, 800 μm), and the fiber was used virtually in contact with the tissue surface with an output at the end thereof being 5 mW. Laser irradiation was performed while reciprocating the fiber horizontally across the tissue over approx. 1 cm on the tissue surface. The laser irradiation time (T) and the total dose of laser irradiation (It) in each experimental example were as follows.
Experiment 1: T=60 s, It=4.2 J/cm^2
Experiment 2: T=80 s, It=6.6 J/cm^2
Experiment 3: T=267 s, It=14 J/cm^2
Experiment 4: T=500 s, It=36 J/cm^2
0.8-mA electrical stimulus was applied from a bipolar electrode (Unique Medical Co., Ltd., obtained by twining 0.2-mmφ silver chloride wires) with a stimulator and an isolator (Nihon Kohden Corporation) every 300 ms, and two bipolar electrodes for measuring a potential (Unique Medical Co., Ltd., 0.25 mmφ stainless) were placed on the tissue surface to measure a extracellular potential (FIG. 24). […] A signal was led to a bioamplifier (Physio-Tech Co., Ltd., DAM50) and recorded and analyzed using a biosignal recording/analyzing apparatus (AD Instrumens) (FIG. 25). FIG. 25 is a schematic view showing an ex vivo experimental system.
FIGS. 26 to 29 show extracellular potentials before and after PDT a led potential in each experiment. In FIGS. 26 to 29, the upper line (red line) and the lower line (blue line) in one graph represent potentials in X and Y in FIG. 24, respectively. The vertical axis represents voltage.

[3] = Experiment 1: 5 mg/kg i.v., interval 30 min, 30 μg/ml, 4.2 J/cm^2
[4] = Experiment 2: 5 mg/kg i.v., interval 60 min, 20 μg/ml, 6.6 J/cm^2
[5] = Experiment 3: 2 mg/kg i.v., interval 30 min, 12 μg/ml, 14 J/cm^2
[6] = Experiment 4: 2 mg/kg i.v., interval 60 min, 8 μg/ml, 36 J/cm^2

## C=Cc1c(C)c2cc3nc(c(CC(=O)N[C@@H](CC(=O)O)C(=O)O)c4[nH]c(cc5nc(cc1[nH]2)C(C)=C5CC)c(C)c4C(=O)O)[C@@H](CCC(=O)O)[C@@H]3C [talaporfin sodium, mono-L-aspartyl chlorine 6]
[1]; loading 2 h, 3.5 J/cm^2
  time without electrical conduction after block: ≥ 1 h
[1]; loading 2 h, 3.5 J/cm^2, 5 min after the completion of laser irradiation
  electrical conduction (potential at site 2): the electrical conduction route was completely blocked
[1]; loading 2 h, 150 mW/cm^2, 5 min after the start of laser irradiation
  electrical conduction (potential at site 2): a portion of the stimulus conduction route is blocked
[1]; 3.5 J/cm^2, FIG. 9
  cell conditions in tissue sample at PDT site: no major abnormality was observed in the cell conditions
[2]; [3]
  electrical conduction block after PDT: an electrical conduction block occurred after PDT
  time the conduction block state was maintained: 3 h
[2]; [4]
  electrical conduction block after PDT: an electrical conduction block occurred after PDT
  time the conduction block state was maintained: 2 h
[2]; [5]
  electrical conduction block after PDT: an electrical conduction block occurred after PDT
  time the conduction block state was maintained: 3 h
[2]; [6]
  electrical conduction block after PDT: an electrical conduction block occurred after PDT
  time the conduction block state was maintained: 3 h
